Measured values from paper PMC10378394 (Current Issues in Molecular Biology, 2023).
Values joined by “and” are separate entries in the source; they are usually repeats but may differ in a detail not shown here. Equal values may be shown once.

Experiments:
PAK2(h) = PAK2(h) (Homo sapiens, UniProt Q13177); test: Eurofins kinase assay
[1] = 2-week repeated oral DRF study; format: in vivo; settings: 500 mg/kg oral
EphB2(h) = EphB2(h) (Homo sapiens, UniProt P29323); test: Eurofins kinase assay
HT29 (BRAF V600E) = test: Cell proliferation assay (CellTiter-Glo); settings: Homo sapiens, HT-29, 72 h
Procedure: To assess cell viability, the CellTiter-Glo Luminescent Cell Viability Assay Reagent (Promega, Fitchburg, WI, USA) was added to each well. The assay measured ATP levels as an indicator of cell viability. All data points were normalized to the control samples treated with dimethyl sulfoxide when determining IC50 values. Statistical calculations and data analysis, including IC50 determination, were performed using GraphPad Prism software.

[2] = target: PI3Kinase(p110a(E545K)/p85a)(m) (Mus musculus, UniProt P42337, E545K); test: Eurofins kinase assay
PRAK(h) = PRAK(h) (Homo sapiens, UniProt Q8IW41); test: Eurofins kinase assay
CDK1/cyclinB(h) = CDK1/cyclinB(h) (Homo sapiens, UniProt P06493); test: Eurofins kinase assay
CaMKIIβ(h) = CaMKIIβ(h) (Homo sapiens, UniProt Q13554); test: Eurofins kinase assay
MEK1(h) = MEK1(h) (Homo sapiens, UniProt Q02750); test: Eurofins kinase assay
Pharmacokinetic study = format: in vivo, C57BL/6 mice
Procedure: Blood samples were collected at each time point for analysis. Plasma samples were analyzed by liquid chromatography–mass spectrometry (LC-MS/MS).

IL-10 = test: Western blot of IL-10; format: in vivo, mouse; settings: normalized to β-actin
Syk(h) = Syk(h) (Homo sapiens, UniProt P43405); test: Eurofins kinase assay
GSK3β(h) = GSK3β(h) (Homo sapiens, UniProt P49841); test: Eurofins kinase assay
PDGFRβ(h) = PDGFRβ(h) (Homo sapiens, UniProt P09619); test: Eurofins kinase assay
[3] = system: MEK and ERK phosphorylation; test: Western blot in LS513 cells; format: cell-based, human
Procedure: (§1) In 6-well plates, LS513 cells were seeded and allowed to adhere and proliferate for 24 h. […] After treatment, the cells were harvested using RIPA lysis buffer to extract cellular proteins. The cell lysates were subjected to Western blot analysis. Antibodies specific to phosphorylated epidermal growth factor receptor (p-EGFR, Cell Signaling Technology, Danvers, MA, USA, #2234S), epidermal growth factor receptor (EGFR, Cell Signaling Technology #2232S), phosphorylated vascular endothelial growth factor receptor (p-VEGFR, Cell Signaling Technology #3770S), vascular endothelial growth factor receptor (VEGFR, Cell Signaling Technology #2479S), phosphorylated Akt (p-Akt, Cell Signaling Technology #9271S), Akt (Cell Signaling Technology #9272S), phosphorylated MEK (p-MEK, Cell Signaling Technology #9121S), MEK (Cell Signaling Technology #9122), phosphorylated ERK (p-ERK, Cell Signaling Technology #9101S), and ERK (Cell Signaling Technology #9102S) were used for protein detection. The antibodies were diluted 1:1000 for the specific target proteins. In addition, a β-actin antibody (Sigma-Aldrich, Seoul, Republic of Korea, #A5441) diluted 1:5000 was used as a loading control. Bone-marrow-derived macrophages (BMDMs) were plated and allowed to adhere and proliferate for 24 h. […] Subsequently, the cells were stimulated with recombinant human angiopoietin-2 (R&D Systems, Minneapolis, MN, USA, #623-AN) and CSF1 (Peprotech, #300-25) for 15 min. After stimulation, protein samples were obtained from the cells. The cell lysates were analyzed by Western blot using specific antibodies, such as p-CSF1R (Cell Signaling, #14591S), CSF1R (Cell Signaling, #67455S), p-TIE2 (Cell Signaling, #4221S), and TIE2 (Santa Cruz Biotechnology, Dallas, TX, USA, #sc-293414), to detect and analyze the respective proteins.

AKT phosphorylation = test: Western blot in LS513 cells; format: cell-based, human; settings: LS513, 1 h treatment
Procedure: as §1

PAR-1Bα(h) = PAR-1Bα(h) (Homo sapiens, UniProt Q7KZI7); test: Eurofins kinase assay
EphB4(h) = EphB4(h) (Homo sapiens, UniProt P54760); test: Eurofins kinase assay
Met(h) = Met(h) (Homo sapiens, UniProt P08581); test: Eurofins kinase assay
TIE2 = TIE2 (Homo sapiens, UniProt Q02763); test: Eurofins kinase assay
Rsk1(h) = Rsk1(h) (Homo sapiens, UniProt Q15418); test: Eurofins kinase assay
CHK1(h) = CHK1(h) (Homo sapiens, UniProt O14757); test: Eurofins kinase assay
Ros(h) = Ros(h) (Homo sapiens, UniProt P08922); test: Eurofins kinase assay
Rsk3(h) = Rsk3(h) (Homo sapiens, UniProt Q15349); test: Eurofins kinase assay
CK2(h) = CK2(h) (Homo sapiens, UniProt P68400); test: Eurofins kinase assay
MAPK2(h) = MAPK2(h) (Homo sapiens, UniProt P28482); test: Eurofins kinase assay
CRAF = CRAF (Homo sapiens, UniProt P04049); test: Eurofins kinase assay
CSF1R = CSF1R (Homo sapiens, UniProt P07333); test: Eurofins kinase assay
[4] = male, C57BL/6, mouse, plasma, iv 5 mg/kg
[5] = male, C57BL/6, mouse, plasma, po 40 mg/kg

Sequence of TIE2 (Q02763 23-1124): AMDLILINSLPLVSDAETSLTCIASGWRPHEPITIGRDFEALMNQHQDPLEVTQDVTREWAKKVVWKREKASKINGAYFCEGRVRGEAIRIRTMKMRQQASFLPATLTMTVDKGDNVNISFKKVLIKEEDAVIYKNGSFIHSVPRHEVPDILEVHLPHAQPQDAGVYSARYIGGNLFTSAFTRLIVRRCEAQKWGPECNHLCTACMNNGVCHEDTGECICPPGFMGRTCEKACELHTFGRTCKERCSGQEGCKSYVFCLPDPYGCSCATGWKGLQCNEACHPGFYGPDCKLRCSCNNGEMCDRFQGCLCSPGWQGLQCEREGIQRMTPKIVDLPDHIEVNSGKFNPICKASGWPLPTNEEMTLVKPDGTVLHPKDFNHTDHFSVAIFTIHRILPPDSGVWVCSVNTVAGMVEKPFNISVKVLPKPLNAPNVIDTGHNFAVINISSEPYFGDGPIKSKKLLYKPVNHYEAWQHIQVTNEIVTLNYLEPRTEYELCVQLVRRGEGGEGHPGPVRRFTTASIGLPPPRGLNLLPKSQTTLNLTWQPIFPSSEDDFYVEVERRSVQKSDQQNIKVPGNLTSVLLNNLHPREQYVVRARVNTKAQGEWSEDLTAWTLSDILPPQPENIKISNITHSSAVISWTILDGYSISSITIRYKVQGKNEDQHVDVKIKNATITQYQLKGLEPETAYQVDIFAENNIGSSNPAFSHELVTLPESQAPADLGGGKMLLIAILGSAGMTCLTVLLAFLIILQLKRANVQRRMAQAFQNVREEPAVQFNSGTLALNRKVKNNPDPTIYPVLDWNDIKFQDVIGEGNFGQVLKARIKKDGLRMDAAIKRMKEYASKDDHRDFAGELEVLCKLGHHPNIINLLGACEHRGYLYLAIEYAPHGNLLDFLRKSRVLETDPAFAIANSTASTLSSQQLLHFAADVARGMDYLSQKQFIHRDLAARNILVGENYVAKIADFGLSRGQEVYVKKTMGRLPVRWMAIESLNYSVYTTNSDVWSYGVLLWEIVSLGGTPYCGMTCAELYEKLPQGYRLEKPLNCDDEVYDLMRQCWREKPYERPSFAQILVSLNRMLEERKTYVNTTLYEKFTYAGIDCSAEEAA
Sequence of CSF1R (P07333 20-972): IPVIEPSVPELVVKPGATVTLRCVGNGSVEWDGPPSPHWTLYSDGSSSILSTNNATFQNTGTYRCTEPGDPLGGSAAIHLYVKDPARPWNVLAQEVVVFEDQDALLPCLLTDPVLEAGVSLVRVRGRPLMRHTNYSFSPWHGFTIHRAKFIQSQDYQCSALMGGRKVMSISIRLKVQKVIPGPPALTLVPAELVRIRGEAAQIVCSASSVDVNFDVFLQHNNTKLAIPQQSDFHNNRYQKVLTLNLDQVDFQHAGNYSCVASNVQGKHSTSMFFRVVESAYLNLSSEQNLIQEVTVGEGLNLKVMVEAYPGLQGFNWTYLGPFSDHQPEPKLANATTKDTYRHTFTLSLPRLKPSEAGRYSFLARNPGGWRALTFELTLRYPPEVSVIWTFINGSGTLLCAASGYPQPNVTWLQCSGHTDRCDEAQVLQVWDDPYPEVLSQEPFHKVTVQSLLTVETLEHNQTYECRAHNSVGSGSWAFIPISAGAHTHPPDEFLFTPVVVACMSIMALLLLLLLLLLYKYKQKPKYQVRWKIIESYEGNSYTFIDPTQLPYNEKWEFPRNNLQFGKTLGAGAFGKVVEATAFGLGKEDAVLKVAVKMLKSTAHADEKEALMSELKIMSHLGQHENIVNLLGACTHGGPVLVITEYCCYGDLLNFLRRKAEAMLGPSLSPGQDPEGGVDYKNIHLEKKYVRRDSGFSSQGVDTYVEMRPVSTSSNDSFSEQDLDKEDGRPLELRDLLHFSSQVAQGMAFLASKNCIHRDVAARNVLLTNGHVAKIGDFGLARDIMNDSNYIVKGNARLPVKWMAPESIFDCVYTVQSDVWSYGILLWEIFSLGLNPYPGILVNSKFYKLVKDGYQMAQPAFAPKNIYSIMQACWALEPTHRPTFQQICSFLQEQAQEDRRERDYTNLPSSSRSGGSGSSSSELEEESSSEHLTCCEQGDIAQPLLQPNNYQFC
Sequence of MEK1(h) (Q02750 whole entry): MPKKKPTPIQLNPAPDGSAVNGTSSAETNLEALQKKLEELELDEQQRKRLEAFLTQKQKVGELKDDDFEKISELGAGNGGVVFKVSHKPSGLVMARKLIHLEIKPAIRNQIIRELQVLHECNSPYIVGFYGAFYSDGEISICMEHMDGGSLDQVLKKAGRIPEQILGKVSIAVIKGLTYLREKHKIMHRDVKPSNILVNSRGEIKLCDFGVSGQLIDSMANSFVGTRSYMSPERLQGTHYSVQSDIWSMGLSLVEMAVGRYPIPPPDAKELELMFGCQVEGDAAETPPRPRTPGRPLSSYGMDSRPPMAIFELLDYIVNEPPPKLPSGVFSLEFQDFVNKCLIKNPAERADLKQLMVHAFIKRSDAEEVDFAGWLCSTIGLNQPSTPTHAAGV
Sequence of Rsk3(h) (Q15349 whole entry): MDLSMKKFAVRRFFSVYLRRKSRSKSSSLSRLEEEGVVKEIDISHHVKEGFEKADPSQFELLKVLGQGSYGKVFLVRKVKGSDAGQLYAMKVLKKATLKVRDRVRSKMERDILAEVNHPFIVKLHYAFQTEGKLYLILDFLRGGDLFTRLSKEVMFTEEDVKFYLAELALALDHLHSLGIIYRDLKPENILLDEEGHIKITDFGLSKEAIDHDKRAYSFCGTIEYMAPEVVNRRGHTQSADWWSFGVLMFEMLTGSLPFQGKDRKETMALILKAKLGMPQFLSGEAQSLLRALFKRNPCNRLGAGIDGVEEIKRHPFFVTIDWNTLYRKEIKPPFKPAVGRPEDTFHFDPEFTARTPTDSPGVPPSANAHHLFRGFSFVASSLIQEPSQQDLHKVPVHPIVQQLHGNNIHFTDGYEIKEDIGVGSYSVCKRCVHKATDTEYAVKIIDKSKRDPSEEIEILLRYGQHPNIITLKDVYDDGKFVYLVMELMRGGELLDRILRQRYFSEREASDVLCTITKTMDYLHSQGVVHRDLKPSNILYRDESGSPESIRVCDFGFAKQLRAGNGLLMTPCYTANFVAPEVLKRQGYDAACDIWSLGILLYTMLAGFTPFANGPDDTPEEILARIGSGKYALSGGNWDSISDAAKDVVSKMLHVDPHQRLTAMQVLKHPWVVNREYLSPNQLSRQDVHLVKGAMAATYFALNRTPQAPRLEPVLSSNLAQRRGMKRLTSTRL
Sequence of CDK1/cyclinB(h) (P06493 whole entry): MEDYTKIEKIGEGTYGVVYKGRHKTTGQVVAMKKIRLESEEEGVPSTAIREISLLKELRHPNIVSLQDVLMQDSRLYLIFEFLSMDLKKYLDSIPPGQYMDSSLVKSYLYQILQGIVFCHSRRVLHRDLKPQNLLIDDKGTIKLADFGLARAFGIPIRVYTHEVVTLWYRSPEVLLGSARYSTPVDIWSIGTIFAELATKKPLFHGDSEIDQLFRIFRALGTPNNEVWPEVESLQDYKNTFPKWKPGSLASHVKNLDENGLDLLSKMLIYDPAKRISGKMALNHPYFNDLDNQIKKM
Sequence of CDK1/cyclinB(h) (P14635 whole entry partner): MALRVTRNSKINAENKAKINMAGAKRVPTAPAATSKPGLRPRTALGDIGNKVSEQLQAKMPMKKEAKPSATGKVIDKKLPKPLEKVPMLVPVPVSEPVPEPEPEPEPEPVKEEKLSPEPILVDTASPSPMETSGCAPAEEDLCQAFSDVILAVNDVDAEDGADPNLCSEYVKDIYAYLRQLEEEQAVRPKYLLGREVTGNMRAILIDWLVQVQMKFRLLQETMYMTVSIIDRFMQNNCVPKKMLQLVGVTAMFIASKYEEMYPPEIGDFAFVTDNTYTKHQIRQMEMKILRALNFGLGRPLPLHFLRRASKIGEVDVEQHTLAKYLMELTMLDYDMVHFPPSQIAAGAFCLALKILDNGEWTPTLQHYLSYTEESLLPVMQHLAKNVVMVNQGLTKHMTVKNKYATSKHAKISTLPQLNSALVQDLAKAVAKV
Sequence of CaMKIIβ(h) (Q13554 whole entry): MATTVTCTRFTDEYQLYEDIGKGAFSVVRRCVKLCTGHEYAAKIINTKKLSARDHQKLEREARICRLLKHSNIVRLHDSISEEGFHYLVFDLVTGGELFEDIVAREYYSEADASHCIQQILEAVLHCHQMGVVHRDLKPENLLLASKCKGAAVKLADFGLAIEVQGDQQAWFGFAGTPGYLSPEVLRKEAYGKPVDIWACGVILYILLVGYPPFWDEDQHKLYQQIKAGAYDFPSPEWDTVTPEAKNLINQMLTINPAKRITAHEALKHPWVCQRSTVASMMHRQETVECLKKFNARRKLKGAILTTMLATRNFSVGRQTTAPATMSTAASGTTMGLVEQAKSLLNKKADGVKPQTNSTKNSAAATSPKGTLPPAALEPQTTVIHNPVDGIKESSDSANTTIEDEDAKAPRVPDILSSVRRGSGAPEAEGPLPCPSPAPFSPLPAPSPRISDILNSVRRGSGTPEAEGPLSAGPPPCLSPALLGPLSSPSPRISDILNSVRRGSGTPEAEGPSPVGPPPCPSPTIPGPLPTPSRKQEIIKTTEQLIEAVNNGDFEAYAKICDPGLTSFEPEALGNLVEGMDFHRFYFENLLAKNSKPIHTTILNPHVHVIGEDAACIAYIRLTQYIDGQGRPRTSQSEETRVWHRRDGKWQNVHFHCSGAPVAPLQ
Sequence of PRAK(h) (Q8IW41 whole entry): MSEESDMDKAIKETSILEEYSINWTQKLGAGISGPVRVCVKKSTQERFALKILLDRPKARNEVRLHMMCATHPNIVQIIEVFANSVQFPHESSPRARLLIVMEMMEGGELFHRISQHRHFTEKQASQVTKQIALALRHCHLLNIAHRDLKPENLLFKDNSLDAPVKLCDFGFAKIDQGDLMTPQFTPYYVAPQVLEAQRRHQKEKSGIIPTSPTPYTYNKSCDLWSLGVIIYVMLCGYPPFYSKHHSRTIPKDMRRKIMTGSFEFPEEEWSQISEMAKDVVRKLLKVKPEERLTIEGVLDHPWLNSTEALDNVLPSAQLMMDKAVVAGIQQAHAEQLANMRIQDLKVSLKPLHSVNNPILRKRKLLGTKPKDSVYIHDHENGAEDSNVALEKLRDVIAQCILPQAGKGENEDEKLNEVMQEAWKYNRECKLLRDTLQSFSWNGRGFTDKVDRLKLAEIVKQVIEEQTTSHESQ

O=C(Nc1cc(Nc2ncccc2-c2ncnc3[nH]cnc23)ccc1F)c1cc(C(F)(F)F)cc(C(F)(F)F)c1 [SJ-C1044, N-(5-(3-(9H-purin-6-yl)pyridin-2-ylamino)-2-fluorophenyl)-3,5-bis(trifluoromethyl)benzamide]
inhibition at 10 µM (PAK2(h)): -1% | 2-week repeated oral toxicity [1]: no indications of toxicity | inhibition at 10 µM (EphB2(h)): -8% | GI50 (HT29 (BRAF V600E)): 247 nM | inhibition at 10 µM [2]: 20% | inhibition at 10 µM (PRAK(h)): -15% | inhibition at 10 µM (CDK1/cyclinB(h)): -10% | inhibition at 10 µM (CaMKIIβ(h)): -5% | inhibition at 10 µM (MEK1(h)): 1% | sustained plasma concentration (Pharmacokinetic study; for 16 h per day, 40 mg/kg once daily, 40 mg/kg): ≥ 8000 ng/mL and ≥ 14 μM | AUC(0-t) (Pharmacokinetic study; [4]): 97.8 µg·h/mL | Cmax (Pharmacokinetic study; [4]): 11400 ng/mL | Tmax (Pharmacokinetic study; [4]): 1.6 h | AUC(0-t) (Pharmacokinetic study; [5]): 228 µg·h/mL | Cmax (Pharmacokinetic study; [5]): 14900 ng/mL | Tmax (Pharmacokinetic study; [5]): 4.3 h | bioavailability (Pharmacokinetic study; [5]): 23% | IL-10 protein expression (IL-10): 33 % CTL | inhibition at 10 µM (Syk(h)): -26% | inhibition at 10 µM (GSK3β(h)): -5% | inhibition at 10 µM (PDGFRβ(h)): 11% | paradoxical activation of MEK and ERK ([3]; KRAS-mutated colorectal cancer cells): without any evidence of paradoxical activation | MEK and ERK phosphorylation ([3]; LS513, 1 h treatment): inhibited MEK and ERK phosphorylation potently | AKT phosphorylation (AKT phosphorylation): no detectable difference | inhibition at 10 µM (PAR-1Bα(h)): 3% | inhibition at 10 µM (EphB4(h)): -6% | inhibition at 10 µM (Met(h)): 13% | IC50 (TIE2): 23 nM | inhibition at 10 µM (TIE2): 97% | inhibition at 10 µM (Rsk1(h)): 0% | inhibition at 10 µM (CHK1(h)): -2% | inhibition at 10 µM (Ros(h)): -12% | inhibition at 10 µM (Rsk3(h)): 4% | inhibition at 10 µM (CK2(h)): -11% | inhibition at 10 µM (MAPK2(h)): -7% | inhibition at 10 µM (CRAF): 86% | IC50 (CSF1R): 235 nM | inhibition at 10 µM (CSF1R): 70%
